Source: patent US20260146044A1, “AROMATIC COMPOUND, PHARMACEUTICAL COMPOSITION CONTAINING SAME, AND USE THEREOF” (Increland, priority 2023, published 2026)
Like-named read-outs stand apart in the source and are kept apart here.

Assays:
[1] = Pharmacokinetic experiment on mice (iv and ig); type: in vivo; details: mouse, plasma, BALB/c Mice; for bioavailability: ig 5.00 mg/kg vs iv 1.00 mg/kg, read-out: Oral bioavailability Fobs (%); for Cmax: read-out: Peak plasma concentration Cmax
[2] = system: secretion levels of IL-6 in PBMC cells; experiment: Inhibition of R848-induced IL-6 secretion in PBMC (IL-6 ELISA); type: cell-based; details: human PBMC, 20 h compound pre-incubation, 24 h stimulation
Summary of the method: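 PBMC pre-treated with compounds (top 1 μM, 4-fold dilutions) in RPMI 1640/10% FBS for 20 h at 37 °C, then stimulated with R848 ([…] final) for another 24 h. Supernatant IL-6 by ELISA (OD450, standard curve); IC50 from dose-effect curve fit.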

IRAK4 protein = target: T1, IRAK4 protein (Homo sapiens, UniProt Q9NWZ3); experiment: IRAK4 protein degradation in THP1 cells (Western blot); type: cell-based; details: 24 h
T1 construct: Effects of Compounds on IRAK4 Protein Degradation in THP1 Cells; endogenous in cells; host or cells: THP-1 cells
T1 sequence (Q9NWZ3 1-460): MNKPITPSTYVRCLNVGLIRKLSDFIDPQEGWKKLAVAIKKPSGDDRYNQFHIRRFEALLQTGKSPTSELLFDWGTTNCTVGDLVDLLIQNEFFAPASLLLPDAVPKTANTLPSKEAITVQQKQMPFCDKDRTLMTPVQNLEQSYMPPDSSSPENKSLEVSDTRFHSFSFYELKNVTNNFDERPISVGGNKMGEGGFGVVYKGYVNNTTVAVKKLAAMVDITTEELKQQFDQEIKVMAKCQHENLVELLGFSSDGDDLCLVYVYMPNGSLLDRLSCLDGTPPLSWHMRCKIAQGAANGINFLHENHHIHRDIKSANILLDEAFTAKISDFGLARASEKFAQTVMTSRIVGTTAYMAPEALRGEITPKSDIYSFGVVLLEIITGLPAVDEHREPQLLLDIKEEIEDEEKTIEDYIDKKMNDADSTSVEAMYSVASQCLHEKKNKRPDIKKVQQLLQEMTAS
Experimental: THP-1 cells were inoculated into a 96-well cell culture plate, with 5×10^4 cells and 100 μL of a culture medium per well. The cell culture plate was cultured in an incubator with 5% CO2 at 37° C. overnight. 100 nl of a well-prepared compound stock solution and a compound-free DMSO stock solution were respectively added to cells per well. The cell culture plate was incubated in an incubator with 5% CO2 at 37° C. for 24 h. One protease inhibitor tablet and one phosphatase inhibitor tablet were added to 20 mL of a cell lysis buffer, and they were gently mixed until complete dissolution. DTT at a final concentration of 200 mM was added to a 4× sample preparation buffer to prepare a 4× sample preparation working solution. 20× electrophoretic buffer was diluted to 1× with ultrapure water. 20× transfer buffer was diluted to 1× with ultrapure water, and 20% methanol was added. […] IRAK4 protein primary antibody working solution: 20 μl of IRAK4 antibody added to 20 mL of a blocking solution; β-Actin primary antibody working solution: 2 μl of beta-actin (13E5) Rabbit mAb antibody added to 20 mL of a blocking solution. IRAK4 protein secondary antibody working solution: Donkey Anti-Goat IgG H&L (HRP) diluted 1/5,000 in a blocking solution; 3-Actin secondary antibody working solution: Anti-rabbit IgG, RP-linked antibody diluted 1/10,000 in a blocking solution. The cell culture plate was centrifuged at 3,000 rpm for 3 min, and most of the culture medium was carefully pipetted. The cell plate was inverted, and centrifuged at 300 rpm for 30 s. 45 μL of a lysis buffer was added to each well. The mixture was shaken at 300 rpm for 30 s, allowed to stand on ice for 30 min, and pipetted 30 times at 20 min. 6 μL of 4× sample preparation working solution was added to 18 μL of protein supernatant for sample preparation, and the mixture was heated at 70° C. for 10 min. Remaining protein samples were stored at −80° C. In the precast gel, 8 μl of sample was loaded into each well for electrophoresis at a constant voltage of 120 V for about 60 min, transferred using a PVDF membrane at a constant current of 300 mA for 1 h, then blocked with a blocking solution at room temperature for 1 h, and incubated in a primary antibody working solution at 4° C. overnight. The membrane was washed with 1×TBST buffer for 3×10 min. The secondary antibody working solution was incubated at room temperature for 1 h. The membrane was washed with 1×TBST buffer for 3×10 min, and a chromogenic solution was used for exposure and color development.

Q: Which results are given for Cc1nn(C2CCC(=O)NC2=O)c2cccc(N3CC4CN(C[C@H]5CC[C@H](n6cc7cc(NC(=O)c8cnn9cccnc89)c(N8CCOCC8)cc7n6)CC5)CC4C3)c12 (some centres unmarked) [TM-57]?
A: bioavailability ([1]; po): 48.4%; AUC ([1]; po, ig, 5.00 mg/kg): 1770 ng·h/mL; AUC(0-inf) ([1]; po, ig, 5.00 mg/kg): 1920 ng·h/mL; Cmax ([1]; po, ig, 5.00 mg/kg): 342 ng/mL; AUC ([1]; iv, 1.00 mg/kg): 790 ng·h/mL; AUC(0-inf) ([1]; iv, 1.00 mg/kg): 795 ng·h/mL; Cmax ([1]; iv, 1.00 mg/kg): 276 ng/mL; IC50 [2]: 3.43 nM; DC50 (IRAK4 protein): 3.12 nM

Q: For Cc1nn(C2CCC(=O)NC2=O)c2cncc(N3CCN(C[C@H]4CC[C@H](n5cc6cc(NC(=O)c7cnn8cccnc78)c(N7CCO[C@H](C)C7)cc6n5)CC4)CC3)c12 (some centres unmarked) [TM-109], which bioavailability ([1]; po) is on record?
A: 63%

Q: What about the AUC ([1]; po, ig, 5.00 mg/kg) of the same molecule?
A: 10100 ng·h/mL

Q: What about the AUC(0-inf) ([1]; po, ig, 5.00 mg/kg) of the same molecule?
A: 10100 ng·h/mL

Q: What about the Cmax ([1]; po, ig, 5.00 mg/kg) of the same molecule?
A: 1300 ng/mL

Q: And the AUC ([1]; iv, 1.00 mg/kg)?
A: 3220 ng·h/mL

Q: And the AUC(0-inf) ([1]; iv, 1.00 mg/kg)?
A: 3220 ng·h/mL

Q: And the Cmax ([1]; iv, 1.00 mg/kg)?
A: 605 ng/mL

Q: And the DC50 (IRAK4 protein)?
A: 4.67 nM
